From paper PMC6570535 (ACS infectious diseases, 2019)
No end group written: not given here.

How the values were obtained:
[1] = biological target: T1, fsr QS circuitry (Enterococcus faecalis, UniProt A0ACD6TCR9); assay: β-galactosidase cell-based bacterial reporter assay, QS activation; settings: E. faecalis pGelE-lacZ reporter strain
[2] = biological target: T1, fsr QS circuitry; assay: β-galactosidase reporter assay, inhibition of competitor GBAP signal; assay type: cell-based, E. faecalis; settings: competition with GBAP
[3] = biological target: T1, fsr QS circuitry; settings: read-out: EC50 [95% CI]; previously published analog shown for comparison; ref [19]; cited from earlier work

Substance	activity as activator [1]	inhibitory activity [2]	EC50 [3] [nM]
Ac-GBAP-Des(Q1N2)[N-MeQ9] [Peptide 8]	lost all activity	neither of these three analogs exhibit any inhibitory activity	–
Ac-GBAP-Des(Q1N2)[N-MeG8] [Peptide 7]	lost all activity	neither of these three analogs exhibit any inhibitory activity	–
Ac-GBAP-Des(Q1N2) (Ac-SPNIFGQWM; also: cyclic, ring not given here) [Peptide 2]	–	–	1.01
GBAP-F7A	–	–	> 1000
